Assay results as given in BindingDB's records for doi:10.1021/ja058636j (Purdue University, 2006).

What was measured:
Assay in all cases: Enzyme Inhibition Measurements
Conditions in all cases: pH 4.5; 37 °C
Cathepsin D = Cathepsin D (Homo sapiens, UniProt P07339)
Experimental: (§1) Enzyme activities were assayed by monitoring the hydrolysis of substrate in the presence or absence of inhibitor compounds. The hydrolysis was recorded as the increase in fluorescence intensity over a 10 min time period. […] The Ki was calculated by using Ki = IC50/ (1 + [S]/Km), and a Km value determined according to Michaelis-Menten.

Beta-secretase 1 = Beta-secretase 1 (Homo sapiens, UniProt P56817)
Beta-secretase 1, sequence (P56817 whole entry): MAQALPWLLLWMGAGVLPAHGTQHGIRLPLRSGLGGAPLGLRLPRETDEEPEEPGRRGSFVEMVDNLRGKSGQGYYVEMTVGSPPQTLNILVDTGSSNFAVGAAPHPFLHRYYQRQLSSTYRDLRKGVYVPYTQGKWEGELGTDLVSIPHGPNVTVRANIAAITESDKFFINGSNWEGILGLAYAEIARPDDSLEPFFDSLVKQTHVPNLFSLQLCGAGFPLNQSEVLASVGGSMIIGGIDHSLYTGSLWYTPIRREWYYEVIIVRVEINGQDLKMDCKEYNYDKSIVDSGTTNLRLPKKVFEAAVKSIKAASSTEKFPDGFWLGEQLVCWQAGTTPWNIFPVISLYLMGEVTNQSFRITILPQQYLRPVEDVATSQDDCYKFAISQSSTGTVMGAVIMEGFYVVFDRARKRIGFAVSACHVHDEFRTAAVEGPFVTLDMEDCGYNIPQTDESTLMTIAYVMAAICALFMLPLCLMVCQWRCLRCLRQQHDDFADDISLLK
Experimental: as §1

Beta-secretase 2 = target: T1, Beta-secretase 2 (Homo sapiens, UniProt Q9Y5Z0)
T1 sequence (Q9Y5Z0 whole entry): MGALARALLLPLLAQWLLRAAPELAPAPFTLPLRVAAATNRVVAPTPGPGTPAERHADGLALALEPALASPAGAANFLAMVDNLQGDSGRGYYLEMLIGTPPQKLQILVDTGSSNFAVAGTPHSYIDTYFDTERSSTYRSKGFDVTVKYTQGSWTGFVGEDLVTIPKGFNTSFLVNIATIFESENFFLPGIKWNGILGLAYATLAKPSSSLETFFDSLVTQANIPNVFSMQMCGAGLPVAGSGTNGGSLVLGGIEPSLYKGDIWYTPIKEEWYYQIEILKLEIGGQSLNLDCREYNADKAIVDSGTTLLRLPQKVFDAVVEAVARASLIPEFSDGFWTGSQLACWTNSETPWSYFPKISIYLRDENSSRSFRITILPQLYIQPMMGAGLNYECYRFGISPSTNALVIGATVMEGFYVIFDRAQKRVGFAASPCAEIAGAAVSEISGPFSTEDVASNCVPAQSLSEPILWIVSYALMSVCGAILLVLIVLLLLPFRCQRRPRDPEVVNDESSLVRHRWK
Experimental: as §1

Cathepsin D, sequence (P07339 65-162 limits assumed): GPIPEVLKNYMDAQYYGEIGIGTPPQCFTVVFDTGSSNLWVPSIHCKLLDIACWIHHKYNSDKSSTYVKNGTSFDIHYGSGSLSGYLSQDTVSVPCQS
Cathepsin D, sequence (P07339 169-412 limits assumed): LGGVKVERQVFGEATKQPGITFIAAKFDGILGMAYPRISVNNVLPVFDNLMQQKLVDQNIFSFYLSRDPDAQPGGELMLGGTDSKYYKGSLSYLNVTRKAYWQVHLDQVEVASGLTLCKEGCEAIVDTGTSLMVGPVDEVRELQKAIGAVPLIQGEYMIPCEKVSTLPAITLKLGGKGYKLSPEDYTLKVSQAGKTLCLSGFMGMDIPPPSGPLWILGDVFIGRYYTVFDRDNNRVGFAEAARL

Row | SMILES | Ki (Cathepsin D) [nM] | Ki (Beta-secretase 1) [nM] | Ki (Beta-secretase 2) [nM]
1 | CSCC[C@H](NC(=O)OCn1nc(C)cc1C)C(=O)N[C@@H](CC(C)C)[C@@H](O)C[C@@H](C)C(=O)N[C@H](C(=O)NCc1ccccc1)C(C)C [(3,5-dimethyl-1H-pyrazol-1-yl)methyl N-[(1S)-1-{[(1R,3S,4S)-1-{[(1S)-1-(benzylcarbamoyl)-2-methylpropyl]carbamoyl}-3-hydroxy-1,6-dimethylheptan-4-yl]carbamoyl}-3-(methylsulfanyl)propyl]carbamate] | 25 | 14 | 
2 | Cc1nc(COC(=O)N[C@@H](CS(C)(=O)=O)C(=O)N[C@@H](CC(C)C)[C@@H](O)C[C@@H](C)C(=O)N[C@H](C(=O)NCC(C)C)C(C)C)c(C)o1 [N2-[(2R,4S,5S)-5-{[N-{[(2,5-dimethyl-1,3-oxazol-4-yl)methoxy]carbonyl}-3-(methylsulfonyl)-L-alanyl]amino}-4-hydroxy-2,7-dimethyloctanoyl]-N-(2-methylpropyl)-L-valinamide] | 304 | 0.12 | 458
3 | CSC[C@H](NC(=O)OCn1nc(C)cc1C)C(=O)N[C@@H](CC(C)C)[C@@H](O)C[C@@H](C)C(=O)N[C@H](C(=O)NCC(C)C)C(C)C [(3,5-dimethyl-1H-pyrazol-1-yl)methyl N-[(1R)-1-{[(1R,3S,4S)-3-hydroxy-1,6-dimethyl-1-{[(1S)-2-methyl-1-[(2-methylpropyl)carbamoyl]propyl]carbamoyl}heptan-4-yl]carbamoyl}-2-(methylsulfanyl)ethyl]carbamate] | 15 | 4.4 | 161
